Our source for the IC50 values is patent EP4667458A1 (Kanaph Therapeutics Inc., priority 2023, dated 2024).

Usually IC50 stands for the concentration needed to halve the response being measured.

Molecules are shown by their SMILES. Where only a bound is given, the exact number is not on record here.

The experiment addresses T1, SOS1 (Homo sapiens, UniProt Q07889).
T1 construct: adding equal amounts of HIS-SOS1cat (160 nM; Cytoskeleton, US); His; purchased Cytoskeleton, US
T1 sequence (Q07889 564-1049 limits assumed): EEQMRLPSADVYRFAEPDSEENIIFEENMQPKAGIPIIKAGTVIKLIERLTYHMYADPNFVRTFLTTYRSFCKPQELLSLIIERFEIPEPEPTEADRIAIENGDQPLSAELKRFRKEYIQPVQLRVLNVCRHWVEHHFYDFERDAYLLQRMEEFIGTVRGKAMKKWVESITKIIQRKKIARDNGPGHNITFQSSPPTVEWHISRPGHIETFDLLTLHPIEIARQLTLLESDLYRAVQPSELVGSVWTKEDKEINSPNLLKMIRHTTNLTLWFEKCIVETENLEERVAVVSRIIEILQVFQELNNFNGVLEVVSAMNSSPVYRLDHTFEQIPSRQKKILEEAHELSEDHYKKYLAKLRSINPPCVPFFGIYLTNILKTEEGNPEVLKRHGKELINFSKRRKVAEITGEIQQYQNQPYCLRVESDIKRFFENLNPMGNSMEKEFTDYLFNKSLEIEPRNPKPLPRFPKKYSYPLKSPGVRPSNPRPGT
As to the kind of experiment: SOS-catalyzed nucleotide exchange assay (HTRF, SOS1-mediated GTP loading of KRAS G12D). The experiment is classed as biochemical. The settings on record: GST-KRAS G12D, HIS-SOS1cat, EDA-GTP-DY-647P1; compound 128 pM to 10 µM; read-out: SOS-catalyzed nucleotide exchange assay (IC50 range, Grade). The procedure:
SOS1 activity was measured by SOS1-mediated GTP loading quantification of KRAS^G12D. GTP-loaded KRAS^G12D was detected by HTRF (Homogeneous Time Resolved Fluorescence) using anti-GST terbium (Cisbio, France) as a donor and a fluorescence GTP analogue (EDA-GTP-DY-647P1, [DY-647P1-labeled 2'/3'-O-(2-aminoethyl-carbamoyl)guanosine-5'-triphosphate (Jena bioscience, Germany)]) as an acceptor.
Assay buffer was composed of 10 mM HEPES pH 7.4, 150 mM NaCl, 5 mM MgCl2, 1 mM DTT, 0.05% BSA Fraction V pH 7.0 (Sigma) and 0.0025% (v/v) Igepal (Sigma). KRAS^G12D working solution was prepared by adding equal amounts of GST-KRAS^G12D (100 nM) and anti-GST-terbium (2 nM; Cisbio, France) to the assay buffer and incubating on ice for 10 minutes. SOS1cat working solution was prepared by adding equal amounts of HIS-SOS1cat (160 nM; Cytoskeleton, US) and EDA-GTP-DY-647P1 (200 nM; Jena bioscience, Germany) to the assay buffer. Control solution was prepared by adding equal volumes of EDA-GTP-DY-647P1 and the assay buffer for normalization control to exclude GEF-independent GTP loading and background signals. In order to induce a reaction, 5 µL of the SOS1cat working solution or the control solution was injected into each well. 5 µL of a compound having various concentrations from 128 pM to 10 µM was added to wells containing the SOS1cat working solution and incubated at room temperature for 10 minutes to bind to SOS1.
10 µL of the KRAS^G12D solution was added to each well and incubated for 30 minutes at room temperature while shaking. HTRF was measured using a Thermo Varioskan (excitation 334 nm, emission 665 nm). The IC50 of each inhibitor was analyzed using Graphad Prism.
The SOS1 inhibitory activity of the Example compounds measured by the above method was evaluated based on the following criteria, and the results are shown in Table 29.
(In general: Time-resolved FRET reads energy transfer from a long-lived donor to a nearby acceptor.)
In the case of `C[C@@H](NC(=O)c1ccc(=O)n(C2C[C@@H]3CC[C@H]2C3)n1)c1cc(N)cc(C(F)(F)F)c1` (stereo partly drawn) [Example 119, N-[(1R)-1-[3-amino-5-(trifluoromethyl)phenyl]ethyl]-1-[(1S,4R)-bicyclo[2.2.1]heptan-2-yl]-6-oxo-1,6-dihydropyridazine-3-carboxamide], the IC50 is over 10000 nM. `C[C@@H](NC(=O)c1ccc(=O)n(-c2cccc(F)c2F)c1)c1cc(N)cc(C(F)(F)F)c1` [Example 94, N-[(1R)-1-[3-amino-5-(trifluoromethyl)phenyl]ethyl]-1-(2,3-difluorophenyl)-6-oxo-1,6-dihydropyridine-3-carboxamide]: the IC50 was under 1000 nM.

Consider `Cc1ccccc1-n1nc(C(=O)N[C@H](C)c2cc(N)cc(C(F)(F)F)c2)ccc1=O` [Example 41, N-[(1R)-1-[3-amino-5-(trifluoromethyl)phenyl]ethyl]-1-(o-tolyl)-6-oxo-pyridazine-3-carboxamide], for which the IC50 was under 1000 nM. To `C[C@@H](NC(=O)c1ccc(=O)n(-c2ccccc2)n1)c1cccc(S(C)(=O)=O)c1` [Example 11, N-[(1R)-1-(3-methylsulfonylphenyl)ethyl]-6-oxo-1-phenyl-pyridazine-3-carboxamide] belongs 1000 to 10000 nM; to `C[C@@H](NC(=O)c1ccc(=O)n(-c2ccccc2)n1)c1ccc(S(C)(=O)=O)cc1` [Example 12, N-[(1R)-1-(4-methylsulfonylphenyl)ethyl]-6-oxo-1-phenyl-pyridazine-3-carboxamide], over 10000 nM; to `C[C@@H](NC(=O)c1ccc(=O)n(-c2ccccc2)n1)c1ccc(Cl)cc1` [Example 5, (R)-N-(1-(4-chlorophenyl)ethyl)-6-oxo-1-phenyl-1,6-dihydropyridazine-3-carboxamide], over 10000 nM. To `CNCc1ccc(Cl)cc1-c1cnc([C@@H](C)NC(=O)c2ccc(=O)n(-c3ccccc3F)c2)s1` [Example 138, N-[(1R)-1-[5-[5-chloro-2-(methylaminomethyl)phenyl]thiazol-2-yl]ethyl]-1-(2-fluorophenyl)-6-oxo-pyridine-3-carboxamide] belongs under 1000 nM; to `C[C@@H](NC(=O)c1ccc(=O)n(-c2ccccc2Cl)n1)c1cc(N)cc(C(F)(F)F)c1` [Example 32, (R)-N-(1-(3-amino-5-(trifluoromethyl)phenyl)ethyl)-1-(2-chlorophenyl)-6-oxo-1,6-dihydropyridazine-3-carboxamide], under 1000 nM. `Cc1cc(=O)n(-c2ccccc2)nc1C(=O)N[C@H](C)c1cc(N)cc(C(F)(F)F)c1` [Example 49, N-[(1R)-1-[3-amino-5-(trifluoromethyl)phenyl]ethyl]-4-methyl-6-oxo-1-phenyl-pyridazine-3-carboxamide]: the IC50 was in the range of 1000 to 10000 nM. To `C[C@@H](NC(=O)c1ccc(=O)n(-c2cccc(C(=O)OC(C)(C)C)c2)c1)c1cc(N)cc(C(F)(F)F)c1` [Example 72, Tert-butyl 3-(5-{[(1R)-1-[3-amino-5-(trifluoromethyl)phenyl]ethyl]carbamoyl}-2-oxo-1,2-dihydropyridin-1-yl)benzoate] belongs under 1000 nM; to `C[C@@H](NC(=O)c1ccc(=O)n(-c2ccccc2OC(F)(F)F)n1)c1cc(N)cc(C(F)(F)F)c1` [Example 45, N-[(1R)-1-[3-amino-5-(trifluoromethyl)phenyl]ethyl]-6-oxo-1-[2-(trifluoromethoxy)phenyl]pyridazine-3-carboxamide], under 1000 nM; to `C[C@@H](NC(=O)c1ccc(=O)n(-c2cccc(N3CCNC3=O)c2)c1)c1cc(N)cc(C(F)(F)F)c1` [Example 85, N-[(1R)-1-[3-amino-5-(trifluoromethyl)phenyl]ethyl]-6-oxo-1-[3-(2-oxoimidazolidin-1-yl)phenyl]-1,6-dihydropyridine-3-carboxamide], under 1000 nM. To `C[C@@H](NC(=O)c1ccc(=O)n(-c2ccccc2O)n1)c1cc(N)cc(C(F)(F)F)c1` [Example 47, N-[(1R)-1-[3-amino-5-(trifluoromethyl)phenyl]ethyl]-1-(2-hydroxyphenyl)-6-oxo-pyridazine-3-carboxamide] belongs under 1000 nM; to `C[C@@H](NC(=O)c1ccc(=O)n(-c2ccccc2S(C)(=O)=O)n1)c1cc(N)cc(C(F)(F)F)c1` [Example 28, (R)-N-(1-(3-amino-5-(trifluoromethyl)phenyl)ethyl)-1-(2-(methylsulfonyl)phenyl)-6-oxo-1,6-dihydropyridazine-3-carboxamide], over 10000 nM; to `C[C@@H](NC(=O)c1ccc(=O)n(-c2ccc(F)cc2F)c1)c1cc(N)cc(C(F)(F)F)c1` [Example 95, N-[(1R)-1-[3-amino-5-(trifluoromethyl)phenyl]ethyl]-1-(2,4-difluorophenyl)-6-oxo-1,6-dihydropyridine-3-carboxamide], under 1000 nM.

Consider `C[C@@H](NC(=O)c1ccc(=O)n(-c2ccccc2)n1)c1cc(N)cc(C(F)(F)F)c1` [Example 16, N-[(1R)-1-[3-amino-5-(trifluoromethyl)phenyl]ethyl]-6-oxo-1-phenyl-pyridazine-3-carboxamide], for which the IC50 was under 1000 nM. The value for `CC(=O)N1CC=C(n2nc(C(=O)N[C@H](C)c3cc(N)cc(C(F)(F)F)c3)ccc2=O)CC1` [Example 68, 1-(1-acetyl-1,2,3,6-tetrahydropyridin-4-yl)-N-[(1R)-1-[3-amino-5-(trifluoromethyl)phenyl]ethyl]-6-oxo-1,6-dihydropyridazine-3-carboxamide] was under 1000 nM; that for `C#Cc1cc(=O)n(-c2ccccc2)nc1C(=O)N[C@H](C)c1cc(N)cc(C(F)(F)F)c1` [Example 50, N-[(1R)-1-[3-amino-5-(trifluoromethyl)phenyl]ethyl]-4-ethynyl-6-oxo-1-phenyl-pyridazine-3-carboxamide] was 1000 to 10000 nM. To `C[C@@H](NC(=O)c1ccc(=O)n(C2=CCN(S(C)(=O)=O)CC2)n1)c1cc(N)cc(C(F)(F)F)c1` [Example 67, N-[(1R)-1-[3-amino-5-(trifluoromethyl)phenyl]ethyl]-1-(1-methanesulfonyl-1,2,3,6-tetrahydropyridin-4-yl)-6-oxo-1,6-dihydropyridazine-3-carboxamide] belongs under 1000 nM; to `C[C@@H](NC(=O)c1ccc(=O)n(C2CCCCC2)n1)c1cc(N)cc(C(F)(F)F)c1` [Example 116, N-[(1R)-1-[3-amino-5-(trifluoromethyl)phenyl]ethyl]-1-cyclohexyl-6-oxo-1,6-dihydropyridazine-3-carboxamide], 1000 to 10000 nM; to `CC(=O)Nc1cc(-n2cc(C(=O)N[C@H](C)c3cc(N)cc(C(F)(F)F)c3)ccc2=O)ccc1F` [Example 113, 1-(3-acetamido-4-fluoro-phenyl)-N-[(1R)-1-[3-amino-5-(trifluoromethyl)phenyl]ethyl]-6-oxo-pyridine-3-carboxamide], under 1000 nM. Consider `C[C@@H](NC(=O)c1ccc(=O)n(C2CCS(=O)(=O)CC2)n1)c1cc(N)cc(C(F)(F)F)c1` [Example 117, N-[(1R)-1-[3-amino-5-(trifluoromethyl)phenyl]ethyl]-1-(1,1-dioxo-1λ^6-thian-4-yl)-6-oxo-1,6-dihydropyridazine-3-carboxamide], for which the IC50 lay within 1000 to 10000 nM. As to `C[C@@H](NC(=O)c1ccc(=O)n(C2=CCN(C)CC2)n1)c1cc(N)cc(C(F)(F)F)c1` [Example 126, N-[(1R)-1-[3-amino-5-(trifluoromethyl)phenyl]ethyl]-1-(1-methyl-1,2,3,6-tetrahydropyridin-4-yl)-6-oxo-1,6-dihydropyridazine-3-carboxamide], the IC50 was under 1000 nM. The value for `CCOc1cccc([C@@H](C)NC(=O)c2ccc(=O)n(-c3ccccc3)n2)c1` [Example 60, (R)-N-(1-(3-ethoxyphenyl)ethyl)-6-oxo-1-phenyl-1,6-dihydropyridazine-3-carboxamide] was over 10000 nM; that for `C[C@@H](NC(=O)c1ccc(=O)n(-c2cccc3ccccc23)n1)c1cc(N)cc(C(F)(F)F)c1` [Example 25, (R)-N-(1-(3-amino-5-(trifluoromethyl)phenyl)ethyl)-1-(naphthalen-1-yl)-6-oxo-1,6-dihydropyridazine-3-carboxamide] was under 1000 nM.
